Data as given in ChEMBL document CHEMBL1137106, “Piperazinebenzylamines as potent and selective antagonists of the human melanocortin-4 receptor” (Bioorg Med Chem Lett, 2004).

What was measured:
Cell line [1] = experiment: Percentage of alpha-MSH stimulated cAMP level at 10 uM; format: functional, Homo sapiens
Melanocortin receptor 4 [2] = target: T1, Melanocortin receptor 4 (Homo sapiens, UniProt P32245); experiment: Binding affinity towards human melanocortin 4 receptor expressed in HEK 293 cells was determined by using [125I]NDP-MSH as radioligand; format: cell-based, HEK293
Cell line [3] = experiment: Effective concentration required for alpha-MSH stimulated cAMP production at 10 uM; format: functional, cell-based; details: Homo sapiens
[4] = Tested for inhibition of NDP-MSH binding; format: functional
Melanocortin receptor 3 = Melanocortin receptor 3 (Homo sapiens, UniProt P41968); experiment: Binding affinity towards human melanocortin 3 receptor expressed in HEK 293 cells was determined by using [125I]NDP-MSH as radioligand; format: cell-based, HEK293
[5] = target: T2, Melanocyte-stimulating hormone receptor (Homo sapiens, UniProt Q01726); experiment: Percent inhibition of [125I]NDP-MSH binding to human melanocortin 1 receptor expressed in HEK 293 cells at 10 uM; format: cell-based; details: HEK293
Target sequence in this assay (Q01726 whole entry, looked up): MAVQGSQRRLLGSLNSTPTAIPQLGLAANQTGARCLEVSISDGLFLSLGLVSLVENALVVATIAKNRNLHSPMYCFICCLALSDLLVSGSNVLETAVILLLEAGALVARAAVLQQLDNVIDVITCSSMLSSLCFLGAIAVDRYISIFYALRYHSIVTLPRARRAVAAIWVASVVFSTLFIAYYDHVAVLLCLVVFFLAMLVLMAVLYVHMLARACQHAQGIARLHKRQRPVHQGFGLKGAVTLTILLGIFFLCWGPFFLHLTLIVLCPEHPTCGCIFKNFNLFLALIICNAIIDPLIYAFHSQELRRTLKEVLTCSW

Melanocortin receptor 5 = Melanocortin receptor 5 (Homo sapiens, UniProt P33032); experiment: Binding affinity towards human melanocortin 5 receptor expressed in HEK 293 cells was determined by using [125I]NDP-MSH as radioligand; format: cell-based, HEK293
Cell line [6] = experiment: Effective concentration required for alpha-MSH stimulated cAMP production; format: functional, cell-based; details: Homo sapiens
[7] = target: T2, Melanocyte-stimulating hormone receptor; experiment: Binding affinity towards human melanocortin 1 receptor expressed in HEK 293 cells was determined by using [125I]NDP-MSH as radioligand; format: cell-based, HEK293
Target sequence in this assay (Q01726 whole entry): as the sequence (Q01726 whole entry, looked up) above

Cell line [8] = experiment: Concentration required for inhibition of alpha-MSH stimulated cAMP production by 50%; format: functional, cell-based; details: Homo sapiens
Melanocortin receptor 4 [9] = target: T1, Melanocortin receptor 4; experiment: Tested for inhibition of binding to MC4 receptor

Sequence of Melanocortin receptor 3 (P41968 whole entry): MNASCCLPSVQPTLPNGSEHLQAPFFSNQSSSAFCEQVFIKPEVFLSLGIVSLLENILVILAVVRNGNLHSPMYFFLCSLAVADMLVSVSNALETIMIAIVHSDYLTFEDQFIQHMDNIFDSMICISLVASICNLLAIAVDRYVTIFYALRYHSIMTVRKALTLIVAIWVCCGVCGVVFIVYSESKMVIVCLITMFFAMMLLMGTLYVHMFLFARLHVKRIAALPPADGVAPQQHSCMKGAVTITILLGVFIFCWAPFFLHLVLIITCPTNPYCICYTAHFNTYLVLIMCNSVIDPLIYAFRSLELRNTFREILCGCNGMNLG
Sequence of Melanocortin receptor 5 (P33032 whole entry): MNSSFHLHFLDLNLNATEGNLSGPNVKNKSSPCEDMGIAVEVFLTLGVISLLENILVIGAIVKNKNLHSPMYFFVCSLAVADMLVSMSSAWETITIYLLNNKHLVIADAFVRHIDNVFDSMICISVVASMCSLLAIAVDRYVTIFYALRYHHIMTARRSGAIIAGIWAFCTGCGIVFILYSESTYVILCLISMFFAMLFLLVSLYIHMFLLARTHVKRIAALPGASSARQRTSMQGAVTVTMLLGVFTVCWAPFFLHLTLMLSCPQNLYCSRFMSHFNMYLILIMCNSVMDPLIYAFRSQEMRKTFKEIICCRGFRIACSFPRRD
T1 sequence (P32245 whole entry): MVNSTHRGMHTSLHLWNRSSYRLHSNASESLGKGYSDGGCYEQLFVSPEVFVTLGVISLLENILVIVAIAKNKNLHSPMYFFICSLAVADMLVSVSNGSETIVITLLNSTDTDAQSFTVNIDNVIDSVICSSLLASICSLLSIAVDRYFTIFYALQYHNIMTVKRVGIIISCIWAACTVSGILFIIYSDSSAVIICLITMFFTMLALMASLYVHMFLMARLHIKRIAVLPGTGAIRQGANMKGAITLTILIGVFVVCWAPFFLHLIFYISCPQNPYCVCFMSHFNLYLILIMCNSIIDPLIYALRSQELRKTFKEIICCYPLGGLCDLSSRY

Structure (SMILES)	IA (Cell line [1]) [%]	Ki (Melanocortin receptor 4 [2]) [nM]	EC50 (Cell line [3]) [nM]	further results
O=C(N[C@H](Cc1ccc(Cl)cc1)C(=O)N1CCN(c2ccccc2CNCCc2cccs2)CC1)C1CCCCN1 (some centres not stated)	60	75	1100	–
O=C(N[C@H](Cc1ccc(Cl)cc1)C(=O)N1CCN(c2ccccc2CNCCc2cccs2)CC1)C1CCCN1 (some centres not stated)	56	50	1900	–
NC1(C(=O)N[C@H](Cc2ccc(Cl)cc2)C(=O)N2CCN(c3ccccc3CNCCc3cccs3)CC2)CC1	12	46	–	–
O=C(N[C@H](Cc1ccc(Cl)cc1)C(=O)N1CCN(c2ccccc2CNCCc2cccs2)CC1)C1CCNCC1	39	26	–	–
NC(Cc1ccccc1Cl)C(=O)N1CCN(c2ccccc2CNCCc2cccs2)CC1 (configuration not stated)	<45	1000	–	–
CN(C)CC(=O)N[C@H](Cc1ccc(Cl)cc1)C(=O)N1CCN(c2ccccc2CNCCc2cccs2)CC1	45	38	1400	–
CC(NCc1ccco1)c1ccccc1N1CCN(C(=O)[C@@H](Cc2ccc(Cl)cc2)NC(=O)CCN)CC1 (some centres not stated)	99	140	1870	–
O=C(C(O)c1ccc(Cl)cc1)N1CCN(c2ccccc2CNCCc2cccs2)CC1 (configuration not stated)	<45	> 10000	–	–
CC(Nc1ccccc1N)c1ccccc1N1CCN(C(=O)[C@@H](Cc2ccc(Cl)cc2)NC(=O)CCN)CC1 (some centres not stated)	56	470	2720	–
CC(CN1CCN(CC(c2ccc(F)cc2)N2CCN(C)CC2)CC1)C(=O)c1ccccc1 (configuration not stated)	–	–	–	IC50 [4]: 220 nM
O=C(Cc1ccc(Cl)cc1)N1CCN(c2ccccc2CNCCc2cccs2)CC1	<45	> 10000	–	–
NCC(=O)N[C@H](Cc1ccc(Cl)cc1)C(=O)N1CCN(c2ccccc2CNCCc2cccs2)CC1	77	44	580	Ki (Melanocortin receptor 3): 1900 nM; inhibition [5]: 50%; Ki (Melanocortin receptor 5): 990 nM
NC(CC(=O)N1CCN(c2ccccc2CNCCc2cccs2)CC1)c1ccc(Cl)cc1 (configuration not stated)	<45	5400	–	–
CC(NCCNc1cccc2ccccc12)c1ccccc1N1CCN(C(=O)[C@@H](Cc2ccc(Cl)cc2)NC(=O)CCN)CC1 (some centres not stated)	22	290	–	–
CC(NC1CCCNC1)c1ccccc1N1CCN(C(=O)[C@@H](Cc2ccc(Cl)cc2)NC(=O)[C@H]2Cc3ccccc3CN2)CC1 (some centres not stated)	–	–	–	EC50 (Cell line [6]): 3.8 nM
CC(c1ccccc1N1CCN(C(=O)[C@@H](Cc2ccc(Cl)cc2)NC(=O)CCN)CC1)N1CCN(C)CC1 (some centres not stated)	59	86	471	–
CC(N[C@@H]1CCCC[C@H]1N)c1ccccc1N1CCN(C(=O)[C@@H](Cc2ccc(Cl)cc2)NC(=O)CCN)CC1 (some centres not stated)	64	150	590	–
NCCCC(=O)N[C@H](Cc1ccc(Cl)cc1)C(=O)N1CCN(c2ccccc2CNCCc2cccs2)CC1	15	14	–	Ki (Melanocortin receptor 3): 1400 nM; Ki [7]: 1200 nM; IC50 (Cell line [8]): 66 nM; Ki (Melanocortin receptor 5): 1000 nM
CN(CCc1cccs1)Cc1ccccc1N1CCN(C(=O)[C@@H](Cc2ccc(Cl)cc2)NC(=O)CCN)CC1	32	220	–	–
N[C@H](Cc1ccc(Cl)cc1)C(=O)N1CCN(c2ccccc2CNCCc2cccs2)CC1	85	600	8700	–
CC(NCCc1cccs1)c1ccccc1N1CCN(C(=O)[C@@H](Cc2ccc(Cl)cc2)NC(=O)CCN)CC1 (some centres not stated)	32	110	–	–
O=C(N[C@H](Cc1ccc(Cl)cc1)C(=O)N1CCN(c2ccccc2Cn2cncn2)CC1)[C@H]1Cc2ccccc2CN1	–	–	–	EC50 (Cell line [6]): 80 nM
CC(NCCN1CCCCC1)c1ccccc1N1CCN(C(=O)[C@@H](Cc2ccc(Cl)cc2)NC(=O)CCN)CC1 (some centres not stated)	41	210	–	–

Structure (SMILES)	IA (Cell line [1]) [%]	Ki (Melanocortin receptor 4 [2]) [nM]	EC50 (Cell line [3]) [nM]	further results
NCCC(=O)N[C@H](Cc1ccc(Cl)cc1)C(=O)N1CCN(c2ccccc2CNCCc2cccs2)CC1	14	21	–	Ki (Melanocortin receptor 3): 1000 nM; Ki [7]: 1300 nM; IC50 (Cell line [8]): 90 nM; Ki (Melanocortin receptor 5): 1000 nM
COc1ccc2ccccc2c1CCCCN1CCN(CC(c2ccc(F)cc2)N2CCN(C)CC2)CC1 (configuration not stated)	–	–	–	Ki (Melanocortin receptor 4 [9]): 7.9 nM
CC(C)(N)C(=O)N[C@H](Cc1ccc(Cl)cc1)C(=O)N1CCN(c2ccccc2CNCCc2cccs2)CC1	80	66	1500	–
O=C(N[C@H](Cc1ccc(Cl)cc1)C(=O)N1CCN(c2ccccc2CNCCc2cccs2)CC1)[C@H]1Cc2ccccc2CN1	100	–	320	–
CC(c1ccccc1N1CCN(C(=O)[C@@H](Cc2ccc(Cl)cc2)NC(=O)CCN)CC1)N1CCN(c2ccccc2)CC1 (some centres not stated)	35	430	–	–
O=C(CC1CCCN1)N[C@H](Cc1ccc(Cl)cc1)C(=O)N1CCN(c2ccccc2CNCCc2cccs2)CC1 (some centres not stated)	57	40	1800	–
O=C([C@@H](Cc1ccc(Cl)cc1)NS(=O)(=O)CC(F)(F)F)N1CCN(c2ccccc2CNCCc2cccs2)CC1	<45	410	–	–
CC(NCc1ccccc1N)c1ccccc1N1CCN(C(=O)[C@@H](Cc2ccc(Cl)cc2)NC(=O)CCN)CC1 (some centres not stated)	100	120	364	–
NC(C(=O)N1CCN(c2ccccc2CNCCc2cccs2)CC1)c1ccc(Cl)cc1 (configuration not stated)	<45	1800	–	–
CC(C)(C(=O)N1CCN(c2ccccc2CNCCc2cccs2)CC1)c1ccc(Cl)cc1	<45	3800	–	–
O=C(N[C@H](Cc1ccc(Cl)cc1)C(=O)N1CCN(c2ccccc2CNCCc2cccs2)CC1)c1cccnc1	5	41	–	Ki (Melanocortin receptor 3): 1800 nM; IC50 (Cell line [8]): 880 nM; inhibition [5]: 23%; Ki (Melanocortin receptor 5): 730 nM
CCC(NCCc1cccs1)c1ccccc1N1CCN(C(=O)[C@@H](Cc2ccc(Cl)cc2)NC(=O)CCN)CC1 (some centres not stated)	29	140	–	–
COCC(=O)N[C@H](Cc1ccc(Cl)cc1)C(=O)N1CCN(c2ccccc2CNCCc2cccs2)CC1	16	70	–	–
NC(Cc1ccc(Cl)cc1)C(=O)N1CCN(c2ccccc2CNCCc2cccs2)CC1 (configuration not stated)	<45	3900	–	–
O=C(CCc1ccc(Cl)cc1)N1CCN(c2ccccc2CNCCc2cccs2)CC1	<45	1000	–	–
COc1ccc(Br)cc1CCc1c(Cl)cccc1-c1nc(C)c[nH]1	–	–	–	Ki (Melanocortin receptor 4 [9]): 180 nM
NCC(Cc1ccc(Cl)cc1)C(=O)N1CCN(c2ccccc2CNCCc2cccs2)CC1 (configuration not stated)	<45	6400	–	–
O=C(N[C@H](Cc1ccc(Cl)cc1)C(=O)N1CCN(c2ccccc2CNCCc2cccs2)CC1)C1CCCNC1 (some centres not stated)	12	15	–	Ki (Melanocortin receptor 3): 1400 nM; Ki [7]: 2300 nM; IC50 (Cell line [8]): 36 nM; Ki (Melanocortin receptor 5): 720 nM
CC(C)CC(N)C(=O)N[C@H](Cc1ccc(Cl)cc1)C(=O)N1CCN(c2ccccc2CNCCc2cccs2)CC1 (some centres not stated)	45	30	2600	–
O=C(N[C@H](Cc1ccc(Cl)cc1)C(=O)N1CCN(c2ccccc2CNCCc2cccs2)CC1)C1CCN1 (some centres not stated)	47	48	1630	–
NCCC(=O)OC(Cc1ccc(Cl)cc1)C(=O)N1CCN(c2ccccc2CNCCc2cccs2)CC1 (configuration not stated)	<45	290	–	–
COc1ccc(Br)cc1CCc1c(F)cccc1-c1ncc[nH]1	–	–	–	Ki (Melanocortin receptor 4 [9]): 160 nM
